From patent US20260216101A1, “Selective Serotonin Receptor Modulators and Methods of Making and Using the Same” (Park City Bio, LLC, priority 2024, published 2026)

Columns and labels:
5-HT2A receptor = molecular target: T1, 5-HT2A receptor (Homo sapiens, UniProt P28223); experiment: 5-HT2 receptor-mediated Gq activation via Gq/γ1 dissociation BRET (5-HT2A); format: cell-based; settings: predicted based on the level of 5-HT2A agonist efficacy
T1 construct: expressed in transfected cells; host or cells: HEK293T
T1 sequence (P28223 whole entry): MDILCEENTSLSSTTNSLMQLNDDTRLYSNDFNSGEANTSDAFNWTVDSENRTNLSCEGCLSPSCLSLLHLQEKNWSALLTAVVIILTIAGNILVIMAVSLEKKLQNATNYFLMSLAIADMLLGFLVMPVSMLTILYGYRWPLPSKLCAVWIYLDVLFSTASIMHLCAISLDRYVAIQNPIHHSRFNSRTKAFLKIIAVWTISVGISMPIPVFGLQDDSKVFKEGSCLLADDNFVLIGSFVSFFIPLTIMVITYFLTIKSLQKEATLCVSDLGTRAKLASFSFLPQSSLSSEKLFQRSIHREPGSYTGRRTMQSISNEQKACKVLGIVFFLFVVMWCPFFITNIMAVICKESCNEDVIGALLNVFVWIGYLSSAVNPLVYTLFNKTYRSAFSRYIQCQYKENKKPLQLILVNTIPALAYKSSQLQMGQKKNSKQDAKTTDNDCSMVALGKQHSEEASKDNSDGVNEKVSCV
From the text: (§1) To measure 5-HT2 receptor-mediated Gq activation via Gq/y1 dissociation as measured by Bioluminescence Resonance Energy Transfer (BRET) (McCorvy J D, Wacker D, Wang S, Agegnehu B, Liu J, Lansu K, Tribo A R, Olsen R H J, Che T, Jin J, Roth B L. Structural determinants of 5-HT2B receptor activation and biased agonism. Nat Struct Mol Biol. 2018; 25(9): 787-96), HEK293T cells were sub-cultured in Dulbecco's Modified Eagle Medium (DMEM) supplemented with 10% dialyzed fetal bovine serum (FBS) and were co-transfected in a 1:1:1:1 ratio with Rluc8-fused human Gaq (Gaq-Rluc8), a GFP2-fused to the C-terminus of human Gy1(Gy1-GFP2), human G131, and 5-HT2 receptor using TransiT-2020. After at least 18-24 hours, transfected cells were plated in poly-lysine coated 96-well white clear bottom cell culture plates in DMEM containing 1% dialyzed FBS at a density of 25,000-40,000 cells in 200 μL per well and incubated overnight. The following day, medium was decanted, and cells were washed with 60 μL of drug buffer (1×HBSS, 20 mM HEPES, pH 7.4), then 60 μL of drug buffer was added per well. Cells were pre-incubated at in a humidified atmosphere at 37° C. before receiving drug stimulation. […] Substrate addition occurred 15 minutes before reading and utilized 10 μL of the Rluc substrate coelenterazine 400a for Gq dissociation BRET^2 (Prolume/Nanolight, 5 μM final concentration). Plates were read for luminescence at 400 nm and fluorescent GFP2 emission at 510 nm at 1 second per well using a Mithras LB940 multimode microplate reader (e.g. one provided by Berthold). The BRET ratios of fluorescence/luminescence were calculated per well and were plotted as a function of drug concentration using Graphpad Prism 8 (Graphpad Software Inc., San Diego, CA). Data were normalized to % 5-HT stimulation and analyzed using nonlinear regression “log(agonist) vs. response” to yield Emax and EC50 parameter estimates. […]

5-HT2C receptor = molecular target: T2, 5-HT2C receptor (Homo sapiens, UniProt P28335); experiment: 5-HT2 receptor-mediated Gq activation via Gq/γ1 dissociation BRET (5-HT2C); format: cell-based; settings: primary 5-HT2C signaling via Gq-coupled mechanism compared to β-arrestin
T2 construct: expressed in transfected cells; host or cells: HEK293T
T2 sequence (P28335 33-458): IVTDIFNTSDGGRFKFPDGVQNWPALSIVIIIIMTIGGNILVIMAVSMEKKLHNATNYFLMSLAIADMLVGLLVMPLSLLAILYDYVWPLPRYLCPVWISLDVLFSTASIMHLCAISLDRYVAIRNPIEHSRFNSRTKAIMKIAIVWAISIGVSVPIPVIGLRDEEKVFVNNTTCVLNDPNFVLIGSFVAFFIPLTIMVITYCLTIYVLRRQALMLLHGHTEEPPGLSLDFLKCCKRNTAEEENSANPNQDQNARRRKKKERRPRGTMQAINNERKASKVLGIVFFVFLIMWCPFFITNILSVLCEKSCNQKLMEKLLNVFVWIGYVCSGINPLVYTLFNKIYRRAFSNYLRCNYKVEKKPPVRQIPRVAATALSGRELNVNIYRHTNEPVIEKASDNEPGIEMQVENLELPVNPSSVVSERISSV
From the text: as §1

Compound | Hall or N-Hall? (hallucinogenic or non-hallucinogenic plastogenic effect) (5-HT2A receptor) | 5-HT2C Gq signaling bias? (5-HT2C receptor)
CNC[C@H]1C[C@@H]1c1cc(F)ccc1OC | N-Hall | Yes
CNCC1CC1c1cc(F)ccc1SC (stereo not drawn) | N-Hall | Yes
CSc1ccc(F)cc1C1CC1CN(C)C (stereo not drawn) | N-Hall | Yes
